Results from patent publication US10800765B2, “Indole derivative used as CRTH2 inhibitor” (CHIA TAI TIANQING PHARMACEUTICAL GROUP CO., LTD., priority 2016, dated 2020).

Target: CRTH2 receptor (Homo sapiens (Human), UniProt Q9Y5Y4)
Assay: PathHunter CHO-K1 CRTH2 β-arrestin antagonist assay (PGD2 agonist)
Type: cell-based
Conditions: PathHunter CHO-K1 CRTH2 β-arrestin cells; 30 min compound pre-incubation, then EC80 PGD2 for 90 min; chemiluminescence
Description: PathHunter® CHO-K1 CRTH2 β-arrestin cells (DiscoverX, catalogue number 93-0291C2) grew under standard conditions, and were inoculated into a white-wall 384-well microplate at a density of 5,000 cells/well. 20 μL of Cell Plating Reagent 1 was used in each well. Before the test, the cells were incubated overnight at 37° C./5% CO2. A test compound was serially diluted in DMSO with a dilution factor of 3-fold to give 8 concentrations of the test compound. Shortly before the test, the serially diluted test compound was further diluted with the test buffer to 5 times of the test concentration. 5 μL of the further diluted test compound was added to the cells, and the cells were incubated for 30 min at 37° C. The concentration of the solvent was 1%. 5 μL of 6×EC80 agonist (PGD2) buffer was added to the cells, and the cells were incubated for 90 min at 37° C. Measured signals were generated by one-time addition of 15 μL (50% v/v) of PathHunter detection mixture reagent and subsequent one-hour incubation. The microplate was read through the chemiluminescent signals of PerkinElmer Envision™ reader. Biological activity of the test compound was analyzed by CBIS data analysis suite (ChemInnovation, CA), and was denoted as IC50 value.

CRTH2 receptor, sequence (Q9Y5Y4 whole entry): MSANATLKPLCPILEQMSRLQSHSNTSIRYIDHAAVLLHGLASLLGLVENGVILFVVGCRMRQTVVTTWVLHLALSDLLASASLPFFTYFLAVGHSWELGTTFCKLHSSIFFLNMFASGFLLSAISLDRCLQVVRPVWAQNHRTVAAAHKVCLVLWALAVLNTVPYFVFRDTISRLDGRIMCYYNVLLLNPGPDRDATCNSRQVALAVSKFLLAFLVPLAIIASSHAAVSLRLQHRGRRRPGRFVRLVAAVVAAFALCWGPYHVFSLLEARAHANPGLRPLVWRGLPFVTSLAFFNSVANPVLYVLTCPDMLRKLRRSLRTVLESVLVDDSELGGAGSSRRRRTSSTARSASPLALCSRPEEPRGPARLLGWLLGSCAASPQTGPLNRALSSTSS

IC50 [nM]	SMILES
100 to 1000	Cc1c(C2CS(=O)(=O)c3ccccc32)c2cc(F)ccc2n1CC(=O)O (stereo not drawn) [Example 2]
100 to 1000	Cc1c(C2=CS(=O)(=O)c3ccccc32)c2ccc(F)cc2n1CC(=O)O [Example 3]
100 to 1000	Cc1c(C2=CS(=O)(=O)c3ccccc32)c2cc(Cl)ccc2n1CC(=O)O [Example 5]
100 to 1000	Cc1c(C2=CCCS(=O)(=O)c3ccccc32)c2cc(F)ccc2n1CC(=O)O [Example 9]
100 to 1000	Cc1c(C2=CS(=O)(=O)c3ccncc32)c2cc(F)ccc2n1CC(=O)O [Example 10]
100 to 1000	Cc1c(C2=CS(=O)(=O)c3ncccc32)c2cc(F)ccc2n1CC(=O)O [Example 11]
100 to 1000	Cc1ccc2c(c1)c(C1=CS(=O)(=O)c3ccc(C(F)(F)F)cc31)c(C)n2CC(=O)O [Example 15]
100 to 1000	Cc1c(C2=CS(=O)(=O)c3ccc(C(F)(F)F)cc32)c2ccc(F)cc2n1CC(=O)O [Example 16]
100 to 1000	Cc1c(C2=CS(=O)(=O)c3cc(C(F)(F)F)ccc32)c2cc(Cl)ccc2n1CC(=O)O [Example 17]
100 to 1000	Cc1c(C2=CS(=O)(=O)c3cc(C(F)(F)F)ccc32)c2ccc(Cl)cc2n1CC(=O)O [Example 18]
100 to 1000	Cc1ccc2c(c1)c(C1=CS(=O)(=O)c3cc(C(F)(F)F)ccc31)c(C)n2CC(=O)O [Example 19]
100 to 1000	Cc1c(C2=CS(=O)(=O)c3cc(C(F)(F)F)ccc32)c2ccc(F)cc2n1CC(=O)O [Example 20]
100 to 1000	Cc1c(C2=CS(=O)(=O)c3cc(-c4ccncc4)ccc32)c2cc(F)ccc2n1CC(=O)O [Example 21]
< 100	Cc1c(C2=CS(=O)(=O)c3cc(S(C)(=O)=O)ccc32)c2cc(F)ccc2n1CC(=O)O [Example 31]
100 to 1000	Cc1c(C2=CS(=O)(=O)c3ccc(Cl)cc32)c2cc(F)ccc2n1CC(=O)O [Example 33]
100 to 1000	Cc1c(C2=CS(=O)(=O)c3ccc(Cl)cc32)c2cc(Cl)ccc2n1CC(=O)O [Example 34]
100 to 1000	Cc1c(C2=CS(=O)(=O)c3ccc(Cl)cc32)c2ccc(C(F)(F)F)cc2n1CC(=O)O [Example 38]
100 to 1000	Cc1c(Cc2ccc3c(c2)C=CS3(=O)=O)c2cc(F)ccc2n1CC(=O)O [Example 44]
100 to 1000	Cc1c(C(C)C2=CS(=O)(=O)c3ccccc32)c2cc(F)ccc2n1CC(=O)O (stereo not drawn) [Example 45]
100 to 1000	Cc1c(Cc2ccc3c(c2)C(F)C(F)(F)S3(=O)=O)c2cc(F)ccc2n1CC(=O)O (stereo not drawn) [Example 46]

IC50 [nM]	SMILES
100 to 1000	Cc1c(Cc2ccc3c(c2)N(C)S(=O)(=O)C=C3)c2cc(F)ccc2n1CC(=O)O [Example 48]
100 to 1000	Cc1c(Cc2cccc3c2CCS3(=O)=O)c2cc(F)ccc2n1CC(=O)O [Example 49]
100 to 1000	Cc1c(Cc2ccc3c(c2)CCS3(=O)=O)c2ccccc2n1CC(=O)O [Example 50]
100 to 1000	Cc1c(Cc2ccc3c(c2)CCS3(=O)=O)c2cc(Cl)ccc2n1CC(=O)O [Example 51]
100 to 1000	Cc1ccc2c(c1)c(Cc1ccc3c(c1)CCS3(=O)=O)c(C)n2CC(=O)O [Example 52]
> 1000	Cc1c(Cc2ccc3c(c2)CCS3(=O)=O)c2ccc(Cl)cc2n1CC(=O)O [Example 54]
100 to 1000	Cc1c(Cc2ccc3c(c2)CCS3(=O)=O)c2cc(Br)ccc2n1CC(=O)O [Example 55]
100 to 1000	Cc1c(Cc2ccc3c(c2)CCS3(=O)=O)c2cc([N+](=O)[O-])ccc2n1CC(=O)O [Example 57]
> 1000	CC(=O)Nc1ccc2c(c1)c(Cc1ccc3c(c1)CCS3(=O)=O)c(C)n2CC(=O)O [Example 59]
100 to 1000	O=C(O)Cn1cc(Cc2ccc3c(c2)CCS3(=O)=O)c2cc(F)ccc21 [Example 60]
100 to 1000	Cc1c(Cc2cc3c(cc2C(F)(F)F)S(=O)(=O)CC3)c2cc(F)ccc2n1CC(=O)O [Example 61]
100 to 1000	Cc1c(Cc2cc3c(cc2C(F)(F)F)S(=O)(=O)CCC3(F)F)c2cc(F)ccc2n1CC(=O)O [Example 63]
100 to 1000	Cc1c(Cc2cc3c(cc2C(F)(F)F)S(=O)(=O)N(C)CC3(F)F)c2cc(F)ccc2n1CC(=O)O [Example 64]
< 100	Cc1c(Cc2ccc3c(n2)C(F)(F)CCS3(=O)=O)c2cc(F)ccc2n1CC(=O)O [Example 65]
< 100	Cc1c(Cc2ccc3c(c2)N=CNS3(=O)=O)c2cc(F)ccc2n1CC(=O)O [Example 66]
100 to 1000	Cc1c(Cc2ccc3c(c2)S(=O)(=O)CC3)c2cc(F)ccc2n1CC(=O)O [Example 74]
100 to 1000	Cc1c(Cc2cccc3c2S(=O)(=O)CC3)c2cc(F)ccc2n1CC(=O)O [Example 75]
100 to 1000	Cc1c(Cc2cc3c(cc2F)S(=O)(=O)N(C)CC3(F)F)c2cc(F)ccc2n1CC(=O)O [Example 78]
100 to 1000	Cc1c(Cc2ccc3c(c2)C(F)(F)CCS3(=O)=O)c2ncccc2n1CC(=O)O [Example 80]

SMILES	IC50 [nM]
Cc1c(C2=CS(=O)(=O)c3ccc(C(F)(F)F)cc32)c2cc(F)ccc2n1CC(=O)O [Example 12]	100 to 1000
Cc1c(Cc2ccc3c(c2)CCS3(=O)=O)c2cc(F)ccc2n1CC(=O)O [Example 43]	< 100
Cc1c(Cc2ccc3c(c2)N(C)CN(C2CC2)S3(=O)=O)c2cc(F)ccc2n1CC(=O)O [Example 70]	< 100
